Values quoted from earlier work in US12378302B2, “Fusion molecules and uses thereof” (Foundation Medicine, Inc., priority 2012, dated 2025).

Tests used:
Smad4-null cells = conditions: pre-clinical mouse models
[1] = test system: KIF5B-RET transformed cells; conditions: Lipson et al
ErbB4 = target: T1, ErbB4 (Homo sapiens, UniProt Q15303)
T1 construct: host or cells: glioblastoma cell lines

[2] = test system: advanced non-small cell lung cancer
ErbB3 = ErbB3 (Homo sapiens, UniProt P21860)
pancreatic cancer [3] = conditions: Phase 2, gefitinib with gemcitabine
pancreatic cancer [4] = conditions: Phase 2, pancreatic cancer
inactive form of ErbB4 = inactive form of ErbB4 (Homo sapiens, UniProt Q15303); conditions: region conserved in all EGF family members
inactive form of ErbB4, sequence (Q15303 702-1029 limits assumed): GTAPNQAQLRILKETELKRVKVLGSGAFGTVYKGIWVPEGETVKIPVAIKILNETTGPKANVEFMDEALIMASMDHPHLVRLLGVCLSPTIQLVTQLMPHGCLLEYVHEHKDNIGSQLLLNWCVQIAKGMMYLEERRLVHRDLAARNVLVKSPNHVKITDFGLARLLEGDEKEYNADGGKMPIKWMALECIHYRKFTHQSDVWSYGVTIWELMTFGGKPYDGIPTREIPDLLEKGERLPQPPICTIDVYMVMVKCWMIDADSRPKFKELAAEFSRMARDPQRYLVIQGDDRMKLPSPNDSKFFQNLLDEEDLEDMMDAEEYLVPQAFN

T1 sequence (Q15303 26-1308): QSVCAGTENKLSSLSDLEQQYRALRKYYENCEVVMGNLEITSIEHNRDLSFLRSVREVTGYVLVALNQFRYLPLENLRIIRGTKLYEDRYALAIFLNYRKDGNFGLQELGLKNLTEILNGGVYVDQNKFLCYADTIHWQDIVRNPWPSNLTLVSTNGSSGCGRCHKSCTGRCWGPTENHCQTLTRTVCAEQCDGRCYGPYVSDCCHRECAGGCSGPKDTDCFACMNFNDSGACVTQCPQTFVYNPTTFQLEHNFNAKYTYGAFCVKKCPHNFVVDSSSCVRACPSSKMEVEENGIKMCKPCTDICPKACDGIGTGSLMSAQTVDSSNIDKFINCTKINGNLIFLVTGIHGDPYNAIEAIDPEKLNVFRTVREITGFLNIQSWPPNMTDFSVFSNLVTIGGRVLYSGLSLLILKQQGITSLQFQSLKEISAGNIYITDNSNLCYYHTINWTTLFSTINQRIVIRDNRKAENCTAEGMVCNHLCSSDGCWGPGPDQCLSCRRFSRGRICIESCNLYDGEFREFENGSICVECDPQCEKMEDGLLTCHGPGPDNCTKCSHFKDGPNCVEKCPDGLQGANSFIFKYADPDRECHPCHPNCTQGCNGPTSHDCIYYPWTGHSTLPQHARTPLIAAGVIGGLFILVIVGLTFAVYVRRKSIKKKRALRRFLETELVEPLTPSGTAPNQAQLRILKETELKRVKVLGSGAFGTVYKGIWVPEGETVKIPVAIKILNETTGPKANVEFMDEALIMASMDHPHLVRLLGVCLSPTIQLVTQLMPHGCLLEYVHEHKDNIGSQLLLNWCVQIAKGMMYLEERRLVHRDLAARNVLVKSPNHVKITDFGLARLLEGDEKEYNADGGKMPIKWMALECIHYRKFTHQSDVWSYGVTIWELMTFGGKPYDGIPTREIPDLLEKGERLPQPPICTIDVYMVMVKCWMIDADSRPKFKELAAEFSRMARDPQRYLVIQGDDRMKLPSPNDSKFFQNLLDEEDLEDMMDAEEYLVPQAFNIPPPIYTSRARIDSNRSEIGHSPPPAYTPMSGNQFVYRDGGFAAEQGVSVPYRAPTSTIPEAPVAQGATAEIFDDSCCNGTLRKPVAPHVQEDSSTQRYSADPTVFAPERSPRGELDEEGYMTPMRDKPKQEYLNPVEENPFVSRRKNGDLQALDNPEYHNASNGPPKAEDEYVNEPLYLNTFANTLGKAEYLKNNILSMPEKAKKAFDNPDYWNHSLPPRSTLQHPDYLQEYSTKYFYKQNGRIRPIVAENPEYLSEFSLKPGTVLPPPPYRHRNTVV
ErbB3, sequence (P21860 20-1342): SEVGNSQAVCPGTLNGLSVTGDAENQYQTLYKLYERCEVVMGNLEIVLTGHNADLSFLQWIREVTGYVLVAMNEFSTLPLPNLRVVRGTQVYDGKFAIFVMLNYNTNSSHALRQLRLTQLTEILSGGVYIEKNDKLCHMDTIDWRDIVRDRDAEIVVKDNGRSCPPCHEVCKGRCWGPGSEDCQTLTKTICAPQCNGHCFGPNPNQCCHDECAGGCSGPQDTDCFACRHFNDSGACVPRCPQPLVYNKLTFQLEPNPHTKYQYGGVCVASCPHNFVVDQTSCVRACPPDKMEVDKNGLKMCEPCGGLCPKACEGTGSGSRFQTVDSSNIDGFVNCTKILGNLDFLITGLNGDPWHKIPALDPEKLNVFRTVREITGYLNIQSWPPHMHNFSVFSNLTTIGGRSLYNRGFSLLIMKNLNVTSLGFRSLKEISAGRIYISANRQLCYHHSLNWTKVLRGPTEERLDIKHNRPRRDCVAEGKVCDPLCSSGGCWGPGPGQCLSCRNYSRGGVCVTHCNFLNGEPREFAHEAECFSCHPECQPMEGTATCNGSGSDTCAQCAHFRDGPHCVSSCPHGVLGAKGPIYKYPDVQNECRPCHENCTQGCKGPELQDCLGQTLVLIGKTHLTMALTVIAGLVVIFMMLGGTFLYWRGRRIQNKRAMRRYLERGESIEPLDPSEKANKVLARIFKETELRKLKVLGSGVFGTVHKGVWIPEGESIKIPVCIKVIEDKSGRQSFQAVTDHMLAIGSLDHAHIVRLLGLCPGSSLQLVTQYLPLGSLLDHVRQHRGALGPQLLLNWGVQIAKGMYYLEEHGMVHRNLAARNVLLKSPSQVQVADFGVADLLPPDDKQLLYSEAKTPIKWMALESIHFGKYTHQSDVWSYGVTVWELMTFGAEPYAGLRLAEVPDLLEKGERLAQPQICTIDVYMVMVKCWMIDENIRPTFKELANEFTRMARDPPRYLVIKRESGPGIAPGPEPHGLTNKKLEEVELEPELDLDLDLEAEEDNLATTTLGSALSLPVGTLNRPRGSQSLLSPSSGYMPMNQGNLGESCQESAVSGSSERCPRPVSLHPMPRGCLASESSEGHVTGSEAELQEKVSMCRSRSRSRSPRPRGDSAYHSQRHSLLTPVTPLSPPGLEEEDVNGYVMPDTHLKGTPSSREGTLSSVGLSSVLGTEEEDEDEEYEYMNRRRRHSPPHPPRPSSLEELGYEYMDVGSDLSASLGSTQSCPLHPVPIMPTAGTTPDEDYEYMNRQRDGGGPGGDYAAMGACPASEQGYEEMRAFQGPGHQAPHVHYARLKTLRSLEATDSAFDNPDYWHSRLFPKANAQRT

| binding to ErbB4, preventing phosphorylation and therefore activation (ErbB4) | binding to ErbB3, preventing phosphorylation and therefore activation (ErbB3) | binding to ErbB4 (inactive form of ErbB4) | Compound | metastasis of Smad4-null cells (Smad4-null cells) | sensitivity of KIF5B-RET transformed cells [1] | progression-free survival compared with combination chemotherapy ([2]; chemo-naïve patients with known EGFR mutations in their tumor) | survival benefit compared to placebo ([2]; patients who had progressed on first-line therapy) | Akt/Erk pathway (glioblastoma cell lines) | cell cycle (glioblastoma cell lines) | instances of stable disease (pancreatic cancer [3]) | responses (pancreatic cancer [3]) | efficacy (pancreatic cancer [4]) |
| --- | --- | --- | --- | --- | --- | --- | --- | --- | --- | --- | --- | --- |
|  |  |  | c1ccc(-c2nn3c(c2-c2ccnc4cc(OCCN5CCOCC5)ccc24)CCC3)nc1 [LY2109761, 7-(2-morpholinoethoxy)-4-(2-(pyridin-2-yl)-5,6-dihydro-4H-pyrrolo[1,2-b]pyrazol-3-yl)quinoline] | block metastasis |  |  |  |  |  |  |  |  |
| bind | bind |  | COc1cc2ncnc(Nc3ccc(F)c(Cl)c3)c2cc1OCCCN1CCOCC1 [gefitinib] |  | not | significant improvement in progression-free survival | failed to show a survival benefit | decrease | cell cycle arrest | 12/53 | 6/53 | some efficacy |
| bind | bind | bind an inactive form of ErbB4 | CS(=O)(=O)CCNCc1ccc(-c2ccc3ncnc(Nc4ccc(OCc5cccc(F)c5)c(Cl)c4)c3c2)o1 [lapatinib] |  |  |  |  | decrease | cell cycle arrest |  |  |  |
